{
  "source": "patent US8153648B2",
  "about": "“Solid and crystalline dutasteride and processes for preparation thereof” (Gador S.A., priority 2008, dated 2012)",
  "key": {"[1]": {"test": "intrinsic dissolving speed (VDI) study", "assay_type": "physicochemical", "settings": "for change of crystalline or polymorphous structure during the dissolving assay: SDS 2% in hydrochloric acid 0.1N 225 ml, detected in the study chart", "method": "These study has been carried out using Lauril Sodium Sulphate SDS 2% in hydrochloric acid 0.1N 225 ml. as dissolvent. At the established experimental conditions, changes were seen depending on the crystalline or polymorphous structure present."}, "[2]": {"test": "stability on exposure to different humidity conditions", "assay_type": "physicochemical"}},
  "data": [
    {"smiles": "C[C@]12C=CC(=O)NC1CCC1C2CC[C@]2(C)C(C(=O)Nc3cc(C(F)(F)F)ccc3C(F)(F)F)CCC12", "note": "(stereo partly drawn) [Crystalline Form II of dutasteride, 17β-N-[2,5-bis(trifluoromethyl)phenyl]carbamoyl-4-aza-5-α-androst-1-en-3-one]", "values": [
      {"measurement": "change of crystalline or polymorphous structure during the dissolving assay", "setting": "[1]", "value": "did not show any changes"},
      {"measurement": "changes in the solid Form with XR study", "setting": "[2]; 66% and 75% HR, 60-day period", "value": "No changes were observed"},
      {"measurement": "stability when exposed to humidity", "setting": "[2]; 66% and 75% HR, 60-day period", "value": "stable"},
      {"measurement": "water content (KF), final sample", "setting": "[2]; after 60 days at 66% and 75% HR", "value": 2.1},
      {"measurement": "water content (KF), initial sample", "setting": "[2]; before humidity exposure", "value": 1.9}
    ]},
    {"smiles": "C[C@]12C=CC(=O)NC1CCC1C2CC[C@]2(C)C(C(=O)Nc3cc(C(F)(F)F)ccc3C(F)(F)F)CCC12", "note": "(stereo partly drawn) [Crystalline Form III of dutasteride, 17β-N-[2,5-bis(trifluoromethyl)phenyl]carbamoyl-4-aza-5-α-androst-1-en-3-one]", "values": [
      {"measurement": "intrinsic dissolving speed value (VDI)", "setting": "[1]; Lauril Sodium Sulphate SDS 2% in hydrochloric acid 0.1N 225 ml as dissolvent", "value": "of the same magnitude of the crystalline forms described in the previous art"}
    ]},
    {"smiles": "C[C@]12C=CC(=O)NC1CCC1C2CC[C@]2(C)C(C(=O)Nc3cc(C(F)(F)F)ccc3C(F)(F)F)CCC12", "note": "(stereo partly drawn) [amorphous Form, 17β-N-[2,5-bis(trifluoromethyl)phenyl]carbamoyl-4-aza-5-α-androst-1-en-3-one]", "values": [
      {"measurement": "change of crystalline or polymorphous structure during the dissolving assay", "setting": "[1]", "value": "did not show any changes"}
    ]},
    {"smiles": "C[C@]12C=CC(=O)NC1CCC1C2CC[C@]2(C)C(C(=O)Nc3cc(C(F)(F)F)ccc3C(F)(F)F)CCC12", "note": "(stereo partly drawn) [Form I, 17β-N-[2,5-bis(trifluoromethyl)phenyl]carbamoyl-4-aza-5-α-androst-1-en-3-one]", "values": [
      {"measurement": "change of crystalline or polymorphous structure during the dissolving assay", "setting": "[1]", "value": "transformation into Form III"}
    ]}
  ]
}
